Data taken from patent publication US9688678B2, “Oxindole compounds carrying a nitrogen-bound spiro substituent and use thereof for treating vasopressin-related diseases” (AbbVie Deutschland GmbH & Co. KG, priority 2014, dated 2017).

Experiments:
[1] = molecular target: human vasopressin V1a receptor (Homo sapiens (Human), UniProt P37288); experiment: Vasopressin V1a receptor binding assay; details: selectivity quotient, human V1a vs human V1b receptor
Description: The test substances were dissolved in a concentration of 5 mM M in DMSO. Further dilution of these DMSO solutions took place as described for V1b.
The membrane pellet was again homogenized in a High-Pressure-Homogenizer, Polytec 50K at 1500 PSI (Heinemann, Germany) and subsequently taken up in 50 mM Tris-HCl, pH 7.4, homogenized and stored in aliquots frozen in liquid nitrogen at −190° C.
(§1) The incubation buffer was: 50 mM Tris, 10 mM MgCl2, 0.1% BSA, pH 7.4.
Duplicate determinations were carried out.
After incubation (60 minutes at room temperature), the samples were processed as described for V1b.
(§2) The binding parameters were calculated by nonlinear regression in SAS.

[2] = molecular target: human vasopressin V1b receptor (Homo sapiens (Human), UniProt P47901); experiment: Vasopressin V1b receptor binding assay; details: membranes from CHO-K1 cells, displacement of 3H-AVP
Sequence of human vasopressin V1b receptor (P47901 whole entry): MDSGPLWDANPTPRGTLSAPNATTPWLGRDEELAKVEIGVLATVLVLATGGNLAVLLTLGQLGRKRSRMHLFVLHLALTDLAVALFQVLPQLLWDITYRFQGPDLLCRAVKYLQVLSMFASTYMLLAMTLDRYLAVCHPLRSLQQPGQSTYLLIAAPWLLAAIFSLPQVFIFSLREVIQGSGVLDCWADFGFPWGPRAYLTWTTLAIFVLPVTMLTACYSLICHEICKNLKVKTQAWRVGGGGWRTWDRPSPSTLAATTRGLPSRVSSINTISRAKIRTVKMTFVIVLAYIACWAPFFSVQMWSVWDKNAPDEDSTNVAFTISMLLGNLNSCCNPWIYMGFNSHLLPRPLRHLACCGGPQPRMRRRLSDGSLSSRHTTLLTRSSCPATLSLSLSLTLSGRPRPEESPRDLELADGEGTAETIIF
Description: The test substances were dissolved in a concentration of 5 mM in 100% DMSO and further diluted to 5×10^−4 M to 5×10^−9 M. These serial DMSO predilutions were diluted 1:10 with assay buffer. The substance concentration was further diluted 1:5 in the assay mixture resulting in 2% DMSO in the mixture. All dilutions were performed in a Biomek NX automation workstation (Beckman)
The membrane pellet was again homogenized and centrifuged as described and subsequently taken up in 50 mM Tris-HCl, pH 7.4, homogenized and stored in aliquots frozen in liquid nitrogen at −190° C.
as §1
All determinations were carried out as duplicate determinations. […] The liquid scintillation measurement took place in a Microbeta TriLux 12 (Wallac). Analysis:
as §2

Sequence of human vasopressin V1a receptor (P37288 whole entry): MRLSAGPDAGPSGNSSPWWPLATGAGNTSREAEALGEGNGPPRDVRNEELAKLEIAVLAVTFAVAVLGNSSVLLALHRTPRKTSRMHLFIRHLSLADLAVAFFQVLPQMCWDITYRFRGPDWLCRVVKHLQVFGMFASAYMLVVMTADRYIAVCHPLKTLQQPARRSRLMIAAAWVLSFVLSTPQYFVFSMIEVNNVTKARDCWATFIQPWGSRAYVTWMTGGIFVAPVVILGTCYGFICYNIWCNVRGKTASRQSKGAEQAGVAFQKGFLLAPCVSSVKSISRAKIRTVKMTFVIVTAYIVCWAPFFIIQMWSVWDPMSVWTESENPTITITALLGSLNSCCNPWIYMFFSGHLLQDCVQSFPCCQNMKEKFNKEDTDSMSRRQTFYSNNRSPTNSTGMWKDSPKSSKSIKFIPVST

| Ki(h-V1a)/ Ki(h-V1b) [1] | Ki [2] [nM] | Compound |
| --- | --- | --- |
| ++ (25-75) | 10 to 100 | CCOc1ccc(OC)cc1C1(N2CC3(CN(C4CCN(C)CC4)C3)C2)C(=O)N(S(=O)(=O)c2ccc(F)cc2)c2ccc(C#N)cc21 (racemic) [Example 16, (±)-3-(2-ethoxy-5-methoxy-phenyl)-1-(4-fluorophenyl)sulfonyl-3-[2-(1-methyl-4-piperidyl)-2,6-diazaspiro[3.3]heptan-6-yl]-2-oxo-indoline-5-carbonitrile] |
| +++ (>75) | < 1 | CCOc1ccc(OC)cc1C1(N2CC3(CC(N4CCN(C)CC4)C3)C2)C(=O)N(S(=O)(=O)c2ccc(OC)cn2)c2ccc(C#N)cc21 (racemic) [Example 17, (±)-3-(2-ethoxy-5-methoxy-phenyl)-1-[(5-methoxy-2-pyridyl)sulfonyl]-3-[2-(4-methylpiperazin-1-yl)-6-azaspiro[3.3]heptan-6-yl]-2-oxo-indoline-5-carbonitrile] |
| +++ (>75) | < 1 | COc1ccc(S(=O)(=O)N2C(=O)C(c3ccccc3OC)(N3CC4(CN(C5CCN(C)CC5)C4)C3)c3cc(C#N)ccc32)nc1 (racemic) [Example 18, (±)3-(2-methoxyphenyl)-1-[(5-methoxy-2-pyridyl)sulfonyl]-3-[2-(1-methyl-4-piperidyl)-2,6-diazaspiro[3.3]heptan-6-yl]-2-oxo-indoline-5-carbonitrile] |
| +++ (>75) | < 1 | CCOc1ccc(OC)cc1C1(N2CC3(CN(C4CCN(C(C)C)CC4)C3)C2)C(=O)N(S(=O)(=O)c2ccc(OC)cn2)c2ccc(C#N)cc21 (racemic) [Example 19, (±)-3-(2-ethoxy-5-methoxy-phenyl)-3-[2-(1-isopropyl-4-piperidyl)-2,6-diazaspiro[3.3]heptan-6-yl]-1-[(5-methoxy-2-pyridyl)sulfonyl]-2-oxo-indoline-5-carbonitrile] |
| +++ (>75) | 1 to 10 | CCOc1ccc(OC)cc1C1(N2CC3(CN(C4CCN(CCOC)CC4)C3)C2)C(=O)N(S(=O)(=O)c2ccc(OC)cn2)c2ccc(C#N)cc21 (racemic) [Example 20, (±)-3-(2-ethoxy-5-methoxy-phenyl)-3-[2-[1-(2-methoxyethyl)-4-piperidyl]-2,6-diazaspiro[3.3]heptan-6-yl]-1-[(5-methoxy-2-pyridyl)sulfonyl]-2-oxo-indoline-5-carbonitrile] |
| + (10-<25) | < 1 | COc1ccc(S(=O)(=O)N2C(=O)C(c3cc(OC)ccc3OC)(N3CC4(CN(C5CCN(C)CC5)C4)C3)c3cc(C#N)ccc32)nc1 (racemic) [Example 21, (±)-3-(2,5-dimethoxyphenyl)-1-[(5-methoxy-2-pyridyl)sulfonyl]-3-[2-(1-methyl-4-piperidyl)-2,6-diazaspiro[3.3]heptan-6-yl]-2-oxo-indoline-5-carbonitrile] |
| + (10-<25) | 1 to 10 | COc1ccc(S(=O)(=O)N2C(=O)C(c3cccnc3OC)(N3CC4(CN(C5CCN(C)CC5)C4)C3)c3cc(C#N)ccc32)nc1 (racemic) [Example 22, (±)-3-(2-methoxy-3-pyridyl)-1-[(5-methoxy-2-pyridyl)sulfonyl]-3-[2-(1-methyl-4-piperidyl)-2,6-diazaspiro[3.3]heptan-6-yl]-2-oxo-indoline-5-carbonitrile] |
| ++ (25-75) | 1 to 10 | COc1ccc(S(=O)(=O)N2C(=O)C(c3ccccc3OC)(N3CC4(CC(N5CCN(C)CC5)C4)C3)c3cc(C#N)ccc32)nc1 (racemic) [Example 26, (±)-3-(2-methoxyphenyl)-1-[(5-methoxy-2-pyridyl)sulfonyl]-3-[2-(4-methylpiperazin-1-yl)-6-azaspiro[3.3]heptan-6-yl]-2-oxo-indoline-5-carbonitrile] |
| +++ (>75) | 1 to 10 | CCOc1ncccc1C1(N2CC3(CC(N4CCN(C)CC4)C3)C2)C(=O)N(S(=O)(=O)c2ccc(OC)cn2)c2ccc(C#N)cc21 (racemic) [Example 27, (±)-3-(2-ethoxy-3-pyridyl)-1-[(5-methoxy-2-pyridyl)sulfonyl]-3-[2-(4-methylpiperazin-1-yl)-6-azaspiro[3.3]heptan-6-yl]-2-oxo-indoline-5-carbonitrile] |
| +++ (>75) | 1 to 10 | CCOc1ccc(OC)cc1C1(N2CC3(CC(N4CCN(C5COC5)CC4)C3)C2)C(=O)N(S(=O)(=O)c2ccc(OC)cn2)c2ccc(C#N)cc21 (racemic) [Example 28, (±)-3-(2-ethoxy-5-methoxy-phenyl)-1-[(5-methoxy-2-pyridyl)sulfonyl]-3-[2-[4-(oxetan-3-yl)piperazin-1-yl]-6-azaspiro[3.3]heptan-6-yl]-2-oxo-indoline-5-carbonitrile] |
| + (10-<25) | 1 to 10 | COc1ccc(S(=O)(=O)N2C(=O)C(c3cccnc3C(C)(F)F)(N3CC4(CN(C5CCN(C)CC5)C4)C3)c3cc(C#N)ccc32)nc1 (racemic) [Example 30, (±)-3-[2-(1,1-difluoroethyl)-3-pyridyl]-1-[(5-methoxy-2-pyridyl)sulfonyl]-3-[2-(1-methyl-4-piperidyl)-2,6-diazaspiro[3.3]heptan-6-yl]-2-oxo-indoline-5-carbonitrile] |

Continued, compound first:

| Compound | Ki(h-V1a)/ Ki(h-V1b) [1] | Ki [2] [nM] |
| --- | --- | --- |
| CCOc1ccccc1C1(N2CC3(CN(C4CCN(C)CC4)C3)C2)C(=O)N(S(=O)(=O)c2ccc(OC)cn2)c2ccc(C#N)cc21 (racemic) [Example 8, (±)-3-(2-ethoxyphenyl)-1-[(5-methoxy-2-pyridyl)sulfonyl]-3-[2-(1-methyl-4-piperidyl)-2,6-diazaspiro[3.3]heptan-6-yl]-2-oxo-indoline-5-carbonitrile] | +++ (>75) | 1 to 10 |
| CCOc1ncccc1C1(N2CC3(CN(C4CCN(C)CC4)C3)C2)C(=O)N(S(=O)(=O)c2ccc(OC)cn2)c2ccc(C#N)cc21 (racemic) [Example 9, (±)-3-(2-ethoxy-3-pyridyl)-1-[(5-methoxy-2-pyridyl)sulfonyl]-3-[2-(1-methyl-4-piperidyl)-2,6-diazaspiro[3.3]heptan-6-yl]-2-oxo-indoline-5-carbonitrile] | +++ (>75) | 1 to 10 |
| CCOc1ccc(OC)cc1C1(N2CC3(CN(C4CCN(C5COC5)CC4)C3)C2)C(=O)N(S(=O)(=O)c2ccc(OC)cn2)c2ccc(C#N)cc21 (racemic) [Example 10, (±)-3-(2-ethoxy-5-methoxy-phenyl)-1-[(5-methoxy-2-pyridyl)sulfonyl]-3-[2-[1-(oxetan-3-yl)-4-piperidyl]-2,6-diazaspiro[3.3]heptan-6-yl]-2-oxo-indoline-5-carbonitrile] | +++ (>75) | 1 to 10 |
| CCOc1ccc(OC)cc1C1(N2CC3(CN(C4CCN(C)CC4)C3)C2)C(=O)N(S(=O)(=O)c2ccc(C#N)cc2)c2ccc(C#N)cc21 (racemic) [Example 14, (±)-1-(4-cyanophenyl)sulfonyl-3-(2-ethoxy-5-methoxy-phenyl)-3-[2-(1-methyl-4-piperidyl)-2,6-diazaspiro[3.3]heptan-6-yl]-2-oxo-indoline-5-carbonitrile] | +++ (>75) | 10 to 100 |
| CCOc1ccc(OC)cc1C1(N2CC3(CN(C4CCN(C)CC4)C3)C2)C(=O)N(S(=O)(=O)c2ccc(C)cc2)c2ccc(C#N)cc21 (racemic) [Example 15, (±)-3-(2-ethoxy-5-methoxy-phenyl)-3-[2-(1-methyl-4-piperidyl)-2,6-diazaspiro[3.3]heptan-6-yl]-2-oxo-1-(p-tolylsulfonyl)indoline-5-carbonitrile] | ++ (25-75) | 10 to 100 |
| CCOc1ccc(OC)cc1C1(N2CC3(CN(C4CCN(C)CC4)C3)C2)C(=O)N(S(=O)(=O)c2ccc(OC)cn2)c2ccc(C#N)cc21 (single isomer, unassigned; (+)) [Example 1A, (+)-3-(2-ethoxy-5-methoxy-phenyl)-1-[(5-methoxy-2-pyridyl)sulfonyl]-3-[2-(1-methyl-4-piperidyl)-2,6-diazaspiro[3.3]heptan-6-yl]-2-oxo-indoline-5-carbonitrile] | +++ (>75) | < 1 |
| CCOc1ncccc1C1(N2CC3(CN(C4CCN(C)CC4)C3)C2)C(=O)N(S(=O)(=O)c2ccc(OC)cn2)c2ccc(C#N)cc21 (single isomer, unassigned; (+)) [Example 9A, (+)-3-(2-ethoxy-3-pyridyl)-1-[(5-methoxy-2-pyridyl)sulfonyl]-3-[2-(1-methyl-4-piperidyl)-2,6-diazaspiro[3.3]heptan-6-yl]-2-oxo-indoline-5-carbonitrile] | +++ (>75) | < 1 |
| CCOc1ccc(OC)cc1C1(N2CC3(CN(C4CCN(C5COC5)CC4)C3)C2)C(=O)N(S(=O)(=O)c2ccc(OC)cn2)c2ccc(C#N)cc21 (single isomer, unassigned; (+)) [Example 11, (+)-3-(2-ethoxy-5-methoxyphenyl)-1-((5-methoxypyridin-2-yl)sulfonyl)-3-(6-(1-(oxetan-3-yl)piperidin-4-yl)-2,6-diazaspiro[3.3]heptan-2-yl)-2-oxoindoline-5-carbonitrile] | +++ (>75) | < 1 |
